This is an account of results in US6713527B2, “Anaesthetic bone cement” (Queen's University at Kingston, priority 1997, dated 2004).

Counter-ions that a name gives are not always drawn. Bounds are passed on as bounds.

Data set [1] in a line: Elution/release of anaesthetic from DePuy bone cement discs (Example 2). Format: physicochemical. The conditions noted are these: for anaesthetic released over 72 hours, percentage of amount incorporated / anaesthetic released after 72 h, percentage of amount incorporated: discs in 0.2% saline, 37° C.; for effect of particle size on release profile: crystals 75 to 150 um, 150 to 250 um, >250 um, 72 hours. The source says:
Crystalline lidocaine base from three manufacturers (Sigma, Spectrum, and Wyckoff) was used in these studies. It was observed that the relative proportions of crystals of different size varied substantially among the three brands. Thus, an initial study compared the effect of crystal size on elution and release characteristics using Spectrum lidocaine base. Crystals were sorted using a series of molecular sieves into three groups (small, 75 to 150 um; medium, 150 to 250 um; and large, >250 um) and 2.0 g samples from each group were incorporated into bone cement and tested, as indicated below.
All studies adhered to the following procedure: Forty grams of bone cement (DePuy CMW3 unless otherwise specified) were mixed with 2.0, 0.5, 0.05, or 0.005 g of liquid or crystalline anaesthetic (lidocaine: Sigma, Spectrum, Wyckoff; prilocaine: Colour Your Enzyme, Queen's University, Kingston, Ontario, Canada). The polymerization initiated mixtures were formed into discs 50 mm×1 mm and allowed to cure. The cured discs were then placed in a solution (100 ml) containing 0.2% saline, and kept at 37° C. in a shaking water bath. 1 ml aliquots were taken at 0, 1, 2, 3, 4, 6, 24, 48 and 72 hours and to each was added 1 μg/ml bupivacaine as an internal standard. 50 μl aliquots were subjected to HPLC using a Beckman reverse phase column having a mobile phase of 40 mM ammonium phosphate:acetonitrile (60:40) and a flow rate of 1 ml/min, followed by electrochemical detection, to determine the amount of anaesthetic in each sample.
The percentage of anaesthetic released was calculated from the mass of the bone cement/anaesthetic mixture: anaesthetic (e.g., 0.05 g)+bone cement powder (40 g)+bone cement liquid (17.9 g)=57.95 g. The mean mass of bone cement discs in an individual experiment was, for example, 3.75 g, which corresponds to 15.45 discs per mixture. For elution of, for example, 1000 ug after 72 hours, 1000 ug×15.45 discs=0.015 g anaesthetic released. Since 0.05 g anaesthetic was used, 30.9% was released.

For data set [2] the following is noted: lidocaine added to CMW3 vs CMW3.
Protocol: Lidocaine (Xylocaine, Astra Pharmaceuticals) was combined with DePuy CMW3 bone cement as described in Example 1, and mechanical properties including dough time, setting time, exotherm, compressive strength, flexural strength, flexural modulus, and impact strength were analyzed.
Data set [3] is described as follows: Elution of lidocaine from bone cement discs (Example 1). Format: physicochemical. As to conditions: Zimmer or DePuy cement, 0.2% saline, 37° C. The protocol:
Forty grams of bone cement powder from each of three manufacturers: Howmedica (Simplex), Zimmer (Osteobond) and DePuy (CMW3), were mixed with 0.5, 1.0 and 2.0 g of gas-sterilized crystalline lidocaine base (Xylocaine, Astra Pharmaceuticals). The polymerization initiated mixtures were formed into discs 50 mm×1 mm and allowed to harden. The hardened discs were then placed in a stirred solution (100 ml) containing 0.2% saline at 37° C. 100 μl aliquots were taken at 1, 2, 3, 4, 6, 24, 48 and 72 hours and subjected to HPLC with electrochemical detection analysis to determine the lidocaine level in each sample.

For data set [4] the following is noted: eluted from Howmedica bone cement; knee surgery of Example 3.
Where [5] appears, read: 0.05 g anaesthetic per 40 g DePuy CMW3 bone cement, HCl.
[6] abbreviates: 0.5, 1.0, 2.0 g per 40 g Howmedica.
[7] abbreviates: 2.0 g anaesthetic per 40 g DePuy CMW Endurance bone cement.

Turning to `CCN(CC)CC(=O)Nc1c(C)cccc1C` [crystalline lidocaine HCl, lidocaine HCl], the “anaesthetic released over 72 hours, percentage of amount incorporated” value in data set [1] (setting [5]) is reported as “about 25%”; in data set [1] (0.05 g anaesthetic per 40 g DePuy CMW3 bone cement, listed as lidocaine HCl, HCl), “about 25%”; in data set [1] (0.5 g anaesthetic per 40 g DePuy CMW3 bone cement), “about 33%”. In data set [1] (0.5 g anaesthetic per 40 g DePuy CMW Endurance bone cement), the “anaesthetic released after 72 h, percentage of amount incorporated” value is recorded as 23%. The “effect of particle size on release profile” value in data set [1] (DePuy CMW3, HCl) was “Smaller particles eluted faster”.

As for `CCN(CC)CC(=O)Nc1c(C)cccc1C` [crystalline lidocaine base, lidocaine], in data set [2], the “effect on compressive strength, flexural strength or flexural modulus” value is listed as “little effect”; the “improvement of impact strength” value is listed as “about 10%”; the “increase of cement setting time” value is listed as “about 40%”; the “increase of doughing time, factor” value is listed as 3. Also, in data set [3] (setting [6]), the “amount eluted in relation to amount in the mixture” value was “proportional to the amount of lidocaine in the mixture”, the “period of maximum rate of elution” value is on record as “first 24 hours” and the “time of peak dose in elution curve” value was about 6 h. In data set [3] (test period, Howmedica), the “period of sustained release” value amounted to 72 h. In data set [1] (2.0 g anaesthetic per 40 g DePuy CMW3 bone cement), the “anaesthetic released over 72 hours, percentage of amount incorporated” value is listed as “about 1%”. In data set [1] (setting [7]), the “anaesthetic released after 72 h, percentage of amount incorporated” value was “about 0.3%”. Moreover, in data set [1] (2.0 g sieved crystals, all size groups (75 to 150 um, 150 to 250 um, >250 um), DePuy CMW3), the “anaesthetic released over the 72 hour period, percentage of amount incorporated” value is recorded as “about 1%”. Moreover, in data set [1] (DePuy CMW3), the “effect of particle size on release profile” value is “no effect of particle size”. Moreover, in data set [4], the “persistence of analgesic effect” value was “at least 24 hours” and the “time from application of bone cement to analgesic effect” value was at most 6 h.

For `CCCNC(C)C(=O)Nc1ccccc1C` (centres unmarked) [crystalline prilocaine base, prilocaine], in data set [1] (setting [7]), the “anaesthetic released after 72 h, percentage of amount incorporated” value was “about 0.4%”.

As to `CCN(CC)CC(=O)Nc1c(C)cccc1C` [liquid lidocaine HCl, lidocaine HCl], the “anaesthetic released over 72 hours, percentage of amount incorporated” value in data set [1] (setting [5]) stood at 0.3%.

Consider `CCCNC(C)C(=O)Nc1ccccc1C` (centres unmarked) [liquid prilocaine base, prilocaine], for which the “anaesthetic released after 72 h, percentage of amount incorporated” value in data set [1] (setting [7]) is listed as “about 0.3%”. Moreover, the “initial release of anaesthetic” value in data set [1] (2.0 g in DePuy CMW3, compared with crystalline prilocaine base and both forms of lidocaine base (FIG. 4)) is “greatest”.
